Data: patent publication US20070203098A1, “Pten Inhibitors” (priority 2004, published 2007)
Where a name gives a salt, the structure may show the parent alone. Read-outs that look alike come from different tables or passages of the source. Each block holds one compound with its values, some of them ahead of it.

Experiments:
Format in all cases: biochemical
[1] = target: T1, PTEN (Homo sapiens, UniProt P60484); assay: PTEN Inhibition Assay: General Screening
[2] = target: T1, PTEN; assay: PTEN Inhibition Assay: IC50 Determinations
[3] = target: T2, PTP1B (Homo sapiens, UniProt P18031); assay: PTP1B Inhibition Assay: IC50 Determinations
T2 sequence (P18031 1-435): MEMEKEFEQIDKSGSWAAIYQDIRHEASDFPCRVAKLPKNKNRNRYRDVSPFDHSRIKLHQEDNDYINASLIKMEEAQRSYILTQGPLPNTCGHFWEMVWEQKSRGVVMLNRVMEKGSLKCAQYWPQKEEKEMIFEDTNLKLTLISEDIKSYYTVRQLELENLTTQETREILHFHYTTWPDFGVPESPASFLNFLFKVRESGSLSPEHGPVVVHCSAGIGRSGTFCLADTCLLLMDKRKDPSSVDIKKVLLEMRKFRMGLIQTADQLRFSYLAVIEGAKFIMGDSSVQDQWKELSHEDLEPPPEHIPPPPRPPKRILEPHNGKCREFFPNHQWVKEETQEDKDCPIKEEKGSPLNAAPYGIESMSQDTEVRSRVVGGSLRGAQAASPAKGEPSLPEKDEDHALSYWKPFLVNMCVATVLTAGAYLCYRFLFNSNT

[4] = read-out: % Inhibition at 250 uM
[5] = 250 uM, Table 23 polyamides, read-out: % Inhibition @250 uM
[6] = 250 uM, Table 15 diamides, furazan core, read-out: % Inhibition @ 250 uM
[7] = 250 uM, Table 24 known PTP inhibitors, read-out: % Inhibition at 250 uM
[8] = 250 uM, Table 22 imidazoles, read-out: % Inhibition at 250 uM
[9] = read-out: % Inhibition @ 250 uM
[10] = 250 uM, Table 27 isatins, read-out: % Inhibition @250 uM

T1 sequence (P60484 whole entry, species assumed): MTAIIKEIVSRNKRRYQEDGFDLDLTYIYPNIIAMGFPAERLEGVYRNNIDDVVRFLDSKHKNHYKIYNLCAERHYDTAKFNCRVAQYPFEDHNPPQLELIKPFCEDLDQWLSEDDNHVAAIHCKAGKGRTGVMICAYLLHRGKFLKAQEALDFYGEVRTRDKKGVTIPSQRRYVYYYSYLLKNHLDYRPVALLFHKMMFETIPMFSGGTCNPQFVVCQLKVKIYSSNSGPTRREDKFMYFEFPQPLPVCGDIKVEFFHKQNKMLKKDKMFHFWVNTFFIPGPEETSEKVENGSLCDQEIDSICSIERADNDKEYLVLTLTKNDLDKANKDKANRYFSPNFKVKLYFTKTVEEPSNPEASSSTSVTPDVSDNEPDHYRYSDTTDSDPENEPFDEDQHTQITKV

Compound: CC(C)=C[C@@H]1[C@H](C(=O)OCc2coc(Cc3ccccc3)c2)C1(C)C (mixture of isomers) [SF1671-000, 5-Benzyl-3-furylmethyl (1R,S)-cis,trans-chrysanthemate, reference compound]
- inhibition at 250 µM [1, 4]: 9.6%

Compound: CC1(C)C(C=C(Cl)Cl)[C@H]1C(=O)O[C@@H](C#N)c1cccc(Oc2ccccc2)c1 (stereo in doubt) [SF1687-000, Cypermethrin, reference compound]
- inhibition at 250 µM [1, 4]: -5.9%

Compound: NCCCC(O)(P(=O)([O-])O)P(=O)(O)O.[Na+] [CC1669-100, Alendronate, Sodium, Trihydrate, reference compound]
- % Inhibition @ 250 uM in PTEN Assay [1]: minimal activity
- inhibition at 250 µM ([1]; read-out: % Inhibition @ 250 uM in PTEN Assay): -0.9 to 20%

- inhibition at 250 µM [1, 5]: 35.3%
Compound: O=C(CCC(=O)NNC(=O)COc1ccc(Cl)cc1)NNC(=O)COc1ccc(Cl)cc1 [SF1516-000]

- inhibition at 250 µM [1, 5]: 52.4%
Compound: CCOC(=O)CNC(=O)C(c1ccc(O)cc1)N(C(=O)c1snc(C(N)=O)c1N)c1ccc2c(c1)OCO2 (centres unmarked) [SF1552-000]

- inhibition at 250 µM [1, 5]: 70.6%
Compound: CCOC(=O)CNC(=O)C(c1ccc2ncccc2c1)N(CC1CCCO1)C(=O)c1snc(C(N)=O)c1N (centres unmarked) [SF1566-000]

- inhibition at 250 µM [1, 5]: 60.2%
Compound: Nc1nonc1NC(=O)N/N=C/CCC/C=N/NC(=O)Nc1nonc1N [SF1567-000]

- inhibition at 250 µM [1, 6]: 58 to 80%
- IC50 ([2]; Table 29, read-out: PTEN IC50): 80 to 113 µM
- IC50 ([3]; Table 29, read-out: PTP1B IC50): 5.8 µM
Compound: Cc1ccc(C)c(OCC(=O)Nc2nonc2NC(=O)COc2cc(C)ccc2C)c1 [SF1609-000]

- inhibition at 250 µM [1, 6]: 3 to 81%
- IC50 ([2]; Table 29, read-out: PTEN IC50): 66 to 84 µM
- IC50 ([3]; Table 29, read-out: PTP1B IC50): 13.6 µM
Compound: CC(C)c1ccccc1OCC(=O)Nc1nonc1NC(=O)COc1ccccc1C(C)C [SF1617-000]

- inhibition at 250 µM ([1]; 250 uM, Table 16, read-out: % Inhibition @ 250 uM): 2.2%
Compound: O=C(COc1ccccc1)NC1CCCCC1NC(=O)COc1ccccc1 (centres unmarked) [SF1647-000]

Compound: CC1(C)[C@H](C=C(Br)Br)[C@@H]1C(=O)OC(C#N)c1cccc(Oc2ccccc2)c1 (some centres unmarked) [SF1667-000, Deltamethrin, reference compound]
- inhibition at 250 µM [1, 4]: 0.3%

- inhibition at 250 µM [1, 7]: -9.9%
Compound: Cc1ccc(C(=O)Nc2ccc(S(=O)(=O)O)c3cc(S(=O)(=O)O)cc(S(=O)(=O)O)c23)cc1NC(=O)c1cccc(NC(=O)Nc2cccc(C(=O)Nc3cc(C(=O)Nc4ccc(S(=O)(=O)O)c5cc(S(=O)(=O)O)cc(S(=O)(=O)O)c45)ccc3C)c2)c1 [SF1672-100, Suramin, Sodium Salt, reference compound]

Compound: CC12CCC(C)(O1)C(C(=O)O)C2C(=O)O (centres unmarked) [SF1676-000, 1,4-Dimethylendothall, reference compound]
- inhibition at 250 µM [1, 4]: 3.3%

Compound: CC1(C(=O)O)C2CCC(O2)C1(C)C(=O)O (centres unmarked) [SF1679-000, Cantharidic Acid, reference compound]
- inhibition at 250 µM [1, 4]: 2.7%

Compound: CCN(N=O)c1ccc(O)c(O)c1 [SF1681-000, 3,4-Dephostatin, Ethyl-, reference compound]
- inhibition at 250 µM [1, 4]: 82.4%
- IC50 [2]: 50 µM
- IC50 [3]: 50 µM

Compound: CC(C)C(C(=O)OC(C#N)c1cccc(Oc2ccccc2)c1)c1ccc(Cl)cc1 (centres unmarked) [SF1683-000, Fenvalerate, reference compound]
- inhibition at 250 µM [1, 4]: -25.5%

Compound: O=P(O)(O)Oc1cccc2ccccc12 [SF1684-100, α-Naphthyl Acid Phosphate, Monosodium Salt, reference compound]
- inhibition at 250 µM [1, 4]: 11.2%

- inhibition at 250 µM [1, 7]: 10.9%
Compound: O=P(O)(O)OC(CO)CO [SF1685-100, β-Glycerophosphate, Disodium Salt, Pentahydrate, reference compound]

Compound: O=C(O)[C@@H]1[C@H](C(=O)O)[C@H]2CC[C@@H]1O2 [SF1686-000, Endothall, reference compound]
- inhibition at 250 µM [1, 4]: -1.2%

- inhibition at 250 µM [1, 8]: 57 to 95%
- IC50 ([2]; Table 29, read-out: PTEN IC50): 50 µM
- IC50 ([3]; Table 29, read-out: PTP1B IC50): 60 µM
Compound: Cc1cccc(-n2cnc(C(=O)NNC(=O)c3ccc(C(C)(C)C)cc3)c2)n1 [SF1708-000]

Compound: O=C1C(=O)c2ccccc2-c2ccccc21 [SF1721-000]
- inhibition at 250 µM [1, 9]: 99.7%
- IC50 [2]: 3.4 µM
- IC50 [3]: 17 µM

Compound: O=C1C(=O)c2cc([N+](=O)[O-])ccc2-c2ccccc21 [SF1722-000]
- inhibition at 250 µM [1, 9]: 99.3%
- IC50 [2]: 4 µM

- inhibition at 250 µM [1, 8]: 15.9%
Compound: CC(C)(C)c1ccc(C(=O)NNC(=O)c2ccc(C(C)(C)C)cc2)cc1 [SF1733-000]

Compound: Oc1cc2ccccc2c2ccccc12 [SF1734-000]
- IC50 [2]: 33 µM

- IC50 ([2]; Table 28, read-out: PTEN IC50): 20 µM
- IC50 ([3]; Table 29, read-out: PTP1B IC50): > 250 µM
Compound: O=C1CC(S(=O)(=O)O)c2ccccc2C1=O (centres unmarked) [SF1735-000]

Compound: O=C1C=Cc2ccccc2C1=O [SF1736-000]
- IC50 [2]: 21 µM

Compound: O=C1C=CC(=O)c2ccccc21 [SF1737-000]
- IC50 [2]: 43 µM

Compound: COc1ccc(OCC(=O)Nc2ccc3c(c2)C(=O)C(=O)c2ccccc2-3)cc1 [SF1751-000]
- inhibition at 250 µM [1, 9]: 99.2%
- IC50 ([2]; Table 29, read-out: PTEN IC50): 0.3 µM
- IC50 ([3]; Table 29, read-out: PTP1B IC50): 3 µM

Compound: Cc1ccc(OCC(=O)Nc2ccc3c(c2)C(=O)C(=O)c2ccccc2-3)cc1 [SF1771-000]
- inhibition at 250 µM [1, 9]: 99.2%
- IC50 [2]: 0.395 µM
- IC50 [3]: 0.442 µM

Compound: CC(C)c1ccccc1OCC(=O)Nc1ccc2c(c1)C(=O)C(=O)c1ccccc1-2 [SF1772-000]
- inhibition at 250 µM [1, 9]: 99.4%
- IC50 ([2]; Table 29, read-out: PTEN IC50): 0.435 µM
- IC50 ([3]; Table 29, read-out: PTP1B IC50): 0.681 µM

Compound: O=C1C(=O)c2cc(NS(=O)(=O)c3ccc([N+](=O)[O-])cc3)ccc2-c2ccccc21 [SF1774-000]
- inhibition at 250 µM [1, 9]: 98.6%
- IC50 ([2]; Table 29, read-out: PTEN IC50): 0.214 µM
- IC50 ([3]; Table 29, read-out: PTP1B IC50): 0.331 µM

- inhibition at 250 µM [1, 10]: 98.5%
- IC50 ([2]; Table 29, read-out: PTEN IC50): 22.1 µM
- IC50 ([3]; Table 29, read-out: PTP1B IC50): 11 µM
Compound: Cc1ccc(C(=O)Nc2ccc3c(c2)C(=O)C(=O)N3)cc1 [SF1778-000]

Compound: CC(C)(C)c1ccc(S(=O)(=O)Nc2ccc3c(c2)C(=O)C(=O)c2ccccc2-3)cc1 [SF1780-000]
- inhibition at 250 µM [1, 9]: 98%
- IC50 ([2]; Table 29, read-out: PTEN IC50): 0.269 µM
- IC50 ([3]; Table 29, read-out: PTP1B IC50): 0.12 µM

- inhibition at 250 µM [1, 10]: 97.8%
- IC50 ([2]; Table 29, read-out: PTEN IC50): 18.9 µM
- IC50 ([3]; Table 29, read-out: PTP1B IC50): 0.294 µM
Compound: O=C(COc1ccccc1)Nc1ccc2c(c1)C(=O)C(=O)N2 [SF1781-000]

- inhibition at 250 µM [1, 10]: 97.8%
- IC50 ([2]; Table 29, read-out: PTEN IC50): 4.6 µM
- IC50 ([3]; Table 29, read-out: PTP1B IC50): 1.1 µM
Compound: O=C1C(=O)N(Cc2ccc(Cl)cc2Cl)c2ccc([N+](=O)[O-])cc21 [SF1783-000]

Compound: O=C(CCCc1ccccc1)Nc1ccc2c(c1)C(=O)C(=O)c1ccccc1-2 [SF1785-000]
- inhibition at 250 µM [1, 9]: 97.9%
- IC50 [2]: 5 µM
- IC50 [3]: 1 to 10 µM

Compound: CCOC(=O)C(=O)Nc1ccc2c(c1)C(=O)C(=O)c1ccccc1-2 [SF1786-000]
- inhibition at 250 µM [1, 9]: 99.8%
- IC50 [2]: 0.692 µM
- IC50 [3]: < 1 µM

Compound: COc1ccccc1OCC(=O)Nc1ccc2c(c1)C(=O)C(=O)c1ccccc1-2 [SF1787-000]
- inhibition at 250 µM [1, 9]: 94.7%
- IC50 ([2]; Table 29, read-out: PTEN IC50): 0.548 µM
- IC50 ([3]; Table 29, read-out: PTP1B IC50): < 1 µM

Compound: COc1cccc(OCC(=O)Nc2ccc3c(c2)C(=O)C(=O)c2ccccc2-3)c1 [SF1788-000]
- inhibition at 250 µM [1, 9]: 96.9%
- IC50 ([2]; Table 29, read-out: PTEN IC50): 0.41 µM
- IC50 ([3]; Table 29, read-out: PTP1B IC50): < 1 µM

Compound: O=C(CNc1ccc2c(c1)C(=O)C(=O)c1ccccc1-2)OCc1ccccc1 [SF1807-000]
- inhibition at 250 µM [1, 9]: 93.9%
- IC50 [3]: < 1 µM

Compound: CCOC(=O)Nc1ccc2c(c1)C(=O)C(=O)c1ccccc1-2 [SF1808-000]
- inhibition at 250 µM [1, 9]: 96.2%
- IC50 [3]: < 1 µM

Compound: CCOC(=O)c1cccc(OCC(=O)Nc2ccc3c(c2)C(=O)C(=O)c2ccccc2-3)c1 [SF1811-000]
- inhibition at 250 µM [1, 9]: 98.6%

- inhibition at 250 µM [1, 10]: 40.5%
- IC50 ([3]; Table 29, read-out: PTP1B IC50): > 10 µM
Compound: O=C(CCc1ccccc1[N+](=O)[O-])Nc1ccc2c(c1)C(=O)C(=O)N2 [SF1812-000]

- inhibition at 250 µM [1, 10]: 97.3%
- IC50 ([2]; Table 29, read-out: PTEN IC50): 24.5 µM
Compound: O=C1Nc2c(Cl)ccc(Cl)c2C1=O [SF1822-000]

Compound: Monoperoxo(picolinato)oxovanadate(V) [SF1677-000, reference compound]
- % Inh. @ 250 uM in PTEN Assay [1]: 96.9%
